Measurements taken from article PMC12709424, “Markovian state models uncover casein kinase 1 dynamics that govern circadian period” (Biophysical Journal, 2025).

How the values were obtained:
CK1 [1] = experiment: 32P-ATP time course kinase assay, PER3 FASP-like peptides; format: biochemical, human; conditions: 32P-ATP time course, 200 μM peptide, 200 nM CK1 (unprimed), 750 μM ATP, 30°C, pH 7.5; four independent assays; Fig. S15E, F
Protocol: (§1) PER FASP region peptides were synthesized and purified to 95% or higher (SABio). Two independent reaction mixtures of 50 μL containing 200 μM of the FASP or in reaction buffer (25 mM Tris (pH 7.5), 7.5 mM MgCl2, 1 mM DTT, and 0.1 mg/mL BSA) were preincubated for 5 min with or without 20 nM CK1 (for primed FASP) or 200 nM CK1 (for unprimed FASP) and the reaction was started by addition of 750 μM of UltraPure ATP (Promega) containing 1–2 μCi of ɣ-^32p ATP (PerkinElmer). After incubation of the reaction mix at 30°C, an 8-μL aliquot of the reaction mix was transferred to P81 phosphocellulose paper (Reaction Biology Corp) at the indicated timepoints. […] The air-dried P81 paper was counted for Pi incorporation using a scintillation counter (PerkinElmer) by Cherenkov counting. […]
(§2) To map binding sites on the surface of CK1, we employed FTMap, a fast computational approach that uses small organic probes to identify consensus sites (or pockets) that are likely to bind drug -like molecules. We submitted a series of conformations representative of the most populated MSM states to the FTMap server (https://ftmap.bu.edu/) and analyzed the results with FTProd. […] Tables S7 and S8 describe the consensus sites (CS) detected for WT and tau conformations, respectively. When a site is detected (colorful cells), it contains a score based on (1 picture or pasted object on this page, not shown here)

CK1 D132A = experiment: 32P-ATP time course kinase assay, CK1 D132A compared with WT; format: biochemical, human; conditions: 200 μM peptide, 30°C, pH 7.5, four independent assays
Protocol: as §1
as §2, with “(1 picture or pasted object on this page, not shown here)” left out

[2] = target: Human CK1δ catalytic domain (CK1, residues 1–317), wild type (human) (UniProt P48730)
Chain of UniProt P48730 (P48730 other isoform, or with tags, fused parts or gaps mutant): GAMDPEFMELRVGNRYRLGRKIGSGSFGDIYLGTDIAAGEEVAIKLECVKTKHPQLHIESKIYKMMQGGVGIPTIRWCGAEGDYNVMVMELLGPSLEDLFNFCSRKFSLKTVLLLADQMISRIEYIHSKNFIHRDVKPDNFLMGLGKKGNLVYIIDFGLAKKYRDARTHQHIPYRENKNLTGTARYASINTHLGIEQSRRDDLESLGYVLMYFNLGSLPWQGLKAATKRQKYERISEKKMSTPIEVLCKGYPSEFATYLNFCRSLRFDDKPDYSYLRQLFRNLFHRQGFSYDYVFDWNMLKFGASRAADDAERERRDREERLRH

CK1 [3] = conditions: cited from earlier work
From the text: Here, we further tested our model by introducing a lysine at the −3 position and a glutamate at the −1 position of PER3 FASP-like peptides (A610K/L612E) to mimic the PER2 FASP priming region and rescue priming activity. These mutant peptides were used in a ^32P-ATP time course kinase assay ...

## RKKKPSTDIEGGAAR TLSTKAESVAAGIAQ [A610K/L612E (priming only), PER3 KAE peptide with serine residues downstream of the priming site mutated to alanine]
CK1 [1]
  CK1 activity in presence of −3K and −1E (in words): increase in CK1 activity

## RKKKPSTDIEGGAART LSTKAESVASGISQ [A610K/L612E, PER3 FASP-like peptide with −3K and −1E (A610K/L612E)]
CK1 [1]
  CK1 activity in presence of −3K and −1E (in words): increase in CK1 activity

## RKKKTEVSAHLSSLTL PGKAEpSVVSLTSQ [primed FASP peptide, synthetic mouse PER2 FASP peptide, pS659 primed]
CK1 D132A; 20 nM CK1, 750 μM ATP, Fig. S15C
  activity of CK1 D132A compared with CK1 WT on primed FASP (in words): more modest effect

## RKKKTEVSAHLSSLTLP GKAESVVSLTSQ [unprimed FASP peptide, synthetic mouse PER2 FASP peptide, unprimed]
CK1 D132A; 200 nM CK1, 750 μM ATP, Fig. S15B
  activity of CK1 D132A compared with CK1 WT on unprimed FASP (in words): dramatic loss in activity

## human PER2 FASP peptide, alanine at position −1 (E661) in the “priming only” (S665A) background
[2]
  fold change of the apparent Michaelis-Menten constant (KMapp) against the WT “priming only” substrate, ADP-Glo substrate titration: 10 fold

## human PER2 FASP peptide, alanine at position −3 (K659) in the “priming only” (S665A) background
[2]
  fold change of the apparent Michaelis-Menten constant (KMapp) against the WT “priming only” substrate, ADP-Glo substrate titration: 10 fold

## human PER2 FASP peptide, “priming only” (S665A)
[2]
  apparent Michaelis-Menten constant (KMapp) of CK1 priming activity, ADP-Glo substrate titration (200 nM CK1, 100 μM ATP, room temperature, 1 h): 210 µM

B1: PER3: PER homolog within the circadian system (protein, UniProt P56645 1-1201, looked up)
Period circadian protein …: MPRGEAPGPGRRGAKDEALGEESGERWSPEFHLQRKLADSSHSEQQDRNRVSEELIMVVQEMKKYFPSERRNKPSTLDALNYALRCVHSVQANSEFFQILSQNGAPQADVSMYSLEELATIASEHTSKNTDTFVAVFSFLSGRLVHISEQAALILNRKKDVLASSHFVDLLAPQDMRVFYAHTARAQLPFWNNWTQRAARYECAPVKPFFCRIRGGEDRKQEKCHSPFRIIPYLIHVHHPAQPELESEPCCLTVVEKIHSGYEAPRIPVNKRIFTTTHTPGCVFLEVDEKAVPLLGYLPQDLIGTSILSYLHPEDRSLMVAIHQKVLKYAGHPPFEHSPIRFCTQNGDYIILDSSWSSFVNPWSRKISFIIGRHKVRTSPLNEDVFATKIKKMNDNDKDITELQEQIYKLLLQPVHVSVSSGYGSLGSSGSQEQLVSIASSSEASGHRVEETKAEQMTLQQVYASVNKIKNLGQQLYIESMTKSSFKPVTGTRTEPNGGGECKTFTSFHQTLKNNSVYTEPCEDLRNDEHSPSYQQINCIDSVIRYLKSYNIPALKRKCISCTNTTSSSSEEDKQNHKADDVQALQAGLQIPAIPKSEMPTNGRSIDTGGGAPQILSTAMLSLGSGISQCGYSSTIVHVPPPETARDATLFCEPWTLNMQPAPLTSEEFKHVGLTAAVLSAHTQKEEQNYVDKFREKILSSPYSSYLQQESRSKAKYSYFQGDSTSKQTRSAGCRKGKHKRKKLPEPPDSSSSNTGSGPRRGAHQNAQPCCPSAASSPHTSSPTFPPAAMVPSQAPYLVPAFPLPAATSPGREYAAPGTAPEGLHGLPLSEGLQPYPAFPFPYLDTFMTVFLPDPPVCPLLSPSFLPCPFLGATASSAISPSMSSAMSPTLDPPPSVTSQRREEEKWEAQSEGHPFITSRSSSPLQLNLLQEEMPRPSESPDQMRRNTCPQTEYCVTGNNGSESSPATTGALSTGSPPRENPSHPTASALSTGSPPMKNPSHPTASALSTGSPPMKNPSHPTASTLSMGLPPSRTPSHPTATVLSTGSPPSESPSRTGSAASGSSDSSIYLTSSVYSSKISQNGQQSQDVQKKETFPNVAEEPIWRMIRQTPERILMTYQVPERVKEVVLKEDLEKLESMRQQQPQFSHGQKEELAKVYNWIQSQTVTQEIDIQACVTCENEDSADGAATSCGQVLVEDSC
CK1 [3]
  CK1 substrate status (in words): does not appear to be a substrate of the kinase
